Test results reported in patent US20210302318A1, “MEANS AND METHOD FOR THE REAL-TIME ANALYSIS OF HARVESTED CROPS” (THE STATE OF ISRAEL, MINISTRY OF AGRICULTURE & RURAL …, priority 2018, published 2021).

Test system: insects in wheat
Assay: Monitoring efficiency of Deltamethrin pest control treatment in wheat with the TV1061 sensor
Assay type: in vivo
Details: FIG. 13
Protocol: Reference is now made to FIG. 13 showing monitoring efficiency of Deltamethrin pest control treatment in wheat. To determinate system capability to test the efficiency of the pest control treatments, infected and clean wheat were treated with Deltamethrin. Then, sensor (with TV1061 strain) was placed into the treated chambers. […] Deltamethrin is not effective against eggs inside the wheat. Therefore insects inside wheat (in eggs) will be destroyed at the time when they will hatch and walk out. […] Then decreasing in the sensor responses to the background levels may be explained by killing these insects by Deltamethrin residues on the wheat.

Compound: CC1(C)[C@H](C(=O)O[C@H](C#N)c2cccc(Oc3ccccc3)c2)[C@@H]1C=C(Br)Br [Deltamethrin]
- effectiveness against eggs inside the wheat (eggs inside the wheat, sensor response increased on the third day after sanitization): not effective
- pest control efficiency (insects in infected wheat) (infected and clean wheat treated, inferred from similar TV1061 sensor responses in infected and uninfected sample): all insects were destroyed
